For assay [1], the target named is T1, IRAK1 (Homo sapiens, UniProt P51617).
T1 construct: His-TEV-IRAK1 (194-712); His (N); TEV cleavage site (N)
As to the kind of experiment: IRAK1 enzymatic assay (ADP-Glo luminescence). Format: biochemical. The following applies: purified human recombinant His-TEV-IRAK1 (194-712). In outline:
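Luminescent ADP-Glo read-out of ATP turnover by purified His-TEV-IRAK1 (194-712) at 0.3 μg/ml after a 2-hour RT reaction. Compounds, serially diluted from 10 μM to 0.5 nM, were preincubated with enzyme 15 minutes in Hepes pH 7.0 buffer with MgCl2, DTT, EGTA and Triton X-100.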

In assay [2] the target is T2, IRAK4 (Homo sapiens, UniProt Q9NWZ3).
T2 construct: His-TEV-IRAK4 (1-460); His (N); TEV cleavage site (N)
T2 sequence (Q9NWZ3 1-460): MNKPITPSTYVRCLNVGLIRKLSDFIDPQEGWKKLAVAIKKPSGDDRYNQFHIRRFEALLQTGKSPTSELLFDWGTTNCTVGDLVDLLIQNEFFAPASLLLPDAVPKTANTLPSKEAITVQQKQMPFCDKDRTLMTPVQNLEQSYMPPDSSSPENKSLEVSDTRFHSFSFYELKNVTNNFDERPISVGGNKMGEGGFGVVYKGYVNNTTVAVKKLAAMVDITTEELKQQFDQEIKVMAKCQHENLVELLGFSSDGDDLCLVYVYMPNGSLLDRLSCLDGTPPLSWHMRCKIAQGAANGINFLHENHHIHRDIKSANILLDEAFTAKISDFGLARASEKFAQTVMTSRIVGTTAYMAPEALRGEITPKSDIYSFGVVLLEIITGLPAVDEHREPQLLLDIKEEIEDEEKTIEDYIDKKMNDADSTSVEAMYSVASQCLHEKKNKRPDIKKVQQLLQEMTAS
As to the kind of experiment: IRAK4 enzymatic assay (ADP-Glo luminescence). Format: biochemical. The note with it: purified human recombinant His-TEV-IRAK4 (1-460), ATP 2 μM. In outline:
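ADP-Glo luminescence read-out after a 2 h RT kinase reaction with 2 μM ATP and 300 nM biotinylated STK1 peptide. Enzyme (His-TEV-IRAK4 1-460, 0.3 μg/ml) first incubated 15 min with serially diluted compounds (10 μM–0.5 nM) in 50 mM Hepes pH 7.0, 10 mM MgCl2, 5 mM MnCl2.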
(ADP-Glo turns the ADP formed in a reaction into a luminescent signal.)

Usually IC50 stands for the concentration that gives 50% inhibition.

T1 sequence (P51617 194-712): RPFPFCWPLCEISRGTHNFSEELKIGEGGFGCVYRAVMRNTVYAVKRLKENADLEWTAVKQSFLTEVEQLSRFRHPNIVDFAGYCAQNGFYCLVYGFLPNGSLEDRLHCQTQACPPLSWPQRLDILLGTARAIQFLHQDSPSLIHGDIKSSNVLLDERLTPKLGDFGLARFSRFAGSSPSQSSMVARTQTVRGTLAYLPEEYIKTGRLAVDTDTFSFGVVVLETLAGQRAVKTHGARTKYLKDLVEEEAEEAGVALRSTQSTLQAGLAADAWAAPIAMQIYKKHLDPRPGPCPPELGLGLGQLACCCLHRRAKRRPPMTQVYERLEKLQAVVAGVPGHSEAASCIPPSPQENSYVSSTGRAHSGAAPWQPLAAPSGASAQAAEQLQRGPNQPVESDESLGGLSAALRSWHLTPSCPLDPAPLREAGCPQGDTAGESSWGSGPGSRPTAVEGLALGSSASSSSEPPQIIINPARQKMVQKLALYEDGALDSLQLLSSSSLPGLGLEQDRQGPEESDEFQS

For the compound `O=C(/N=c1\[nH]c2cc(N3CCOCC3=O)ccc2n1CCCO)c1cc(F)cc(C(F)(F)F)c1` [Compound 81, (E)-3-fluoro-N-(1-(3-hydroxypropyl)-5-(3-oxomorpholino)-1H-benzo[d]imidazol-2(3H)-ylidene)-5-(trifluoromethyl)benzamide], the IC50 in assay [1] and in assay [2] was not above 100 nM throughout.

Take `CS(=O)(=O)c1cccc(C(=O)/N=c2\[nH]c3cc(N4CCOCC4=O)ccc3n2CCCO)c1` [Compound 82, (E)-N-(1-(3-hydroxypropyl)-5-(3-oxomorpholino)-1H-benzo[d]imidazol-2(3H)-ylidene)-3-(methylsulfonyl)benzamide]: the IC50 in assay [1] is 100 to 1000 nM; in assay [2], not above 100 nM.

For `O=C(/N=c1\[nH]c2cc(N3CCOCC3=O)ccc2n1CCCO)c1cccc(-n2cnnn2)c1` [Compound 83, (E)-N-(1-(3-hydroxypropyl)-5-(3-oxomorpholino)-1H-benzo[d]imidazol-2(3H)-ylidene)-3-(1H-tetrazol-1-yl)benzamide], the IC50 in assay [1] is 100 to 1000 nM; in assay [2], not above 100 nM.

Take `O=C(/N=c1\[nH]c2cc(N3CCOCC3=O)ccc2n1CCCO)c1cccc(C(F)(F)F)n1` [Compound 84, (E)-N-(1-(3-hydroxypropyl)-5-(3-oxomorpholino)-1H-benzo[d]imidazol-2(3H)-ylidene)-6-(trifluoromethyl)picolinamide]: the figures for the IC50 in assay [1] and in assay [2] were more than 1000 nM and 100 to 1000 nM, respectively.

Regarding `O=C(/N=c1\[nH]c2cc(N3CCOCC3=O)ccc2n1CCCO)c1cncc(C(F)(F)F)c1` [Compound 85, (E)-N-(1-(3-hydroxypropyl)-5-(3-oxomorpholino)-1H-benzo[d]imidazol-2(3H)-ylidene)-5-(trifluoromethyl)nicotinamide], the IC50 was 100 to 1000 nM in assay [1] and not above 100 nM in assay [2].

`O=C(/N=c1\[nH]c2cc(N3CCOCC3=O)ccc2n1CCCO)c1cccc(C(F)(F)F)c1` [Compound 86, (E)-N-(1-(3-hydroxypropyl)-5-(3-oxomorpholino)-1H-benzo[d]imidazol-2(3H)-ylidene)-3-(trifluoromethyl)benzamide]: the figures for the IC50 in assay [1] and in assay [2] were 100 to 1000 nM and not above 100 nM, respectively.

For `C[S+]([O-])CCCCn1/c(=N/C(=O)c2cccc(C(F)F)c2)[nH]c2cc(N3CCOCC3=O)ccc21` (stereo not drawn) [Compound 88], the concentration for half-maximal inhibition (IC50) was 100 to 1000 nM in assay [1] and not above 100 nM in assay [2].

With `CSCCCCn1/c(=N/C(=O)c2cccc(C(F)F)c2)[nH]c2cc(N3CCOCC3=O)ccc21` [Compound 89, (E)-3-(difluoromethyl)-N-(1-(4-(methylthio)butyl)-5-(3-oxomorpholino)-1H-benzo[d]imidazol-2(3H)-ylidene)benzamide], the IC50 is more than 1000 nM in assay [1] and 100 to 1000 nM in assay [2].

Regarding `CS(=O)(=O)CCCn1/c(=N/C(=O)c2cccc(C(F)F)c2)[nH]c2cc(N3CCOCC3=O)ccc21` [Compound 90, (E)-3-(difluoromethyl)-N-(1-(3-(methylsulfonyl)propyl)-5-(3-oxomorpholino)-1H-benzo[d]imidazol-2(3H)-ylidene)benzamide], the IC50 in assay [1] and in assay [2] was not above 100 nM each time.

As to `C[S+]([O-])CCCn1/c(=N/C(=O)c2cccc(C(F)F)c2)[nH]c2cc(N3CCOCC3=O)ccc21` (stereo not drawn) [Compound 91, (E)-3-(difluoromethyl)-N-(1-(3-(methylsulfinyl)propyl)-5-(3-oxomorpholino)-1H-benzo[d]imidazol-2(3H)-ylidene)benzamide], the IC50 in assay [1] is 100 to 1000 nM; in assay [2] it was not above 100 nM.

Take `CSCCCn1/c(=N/C(=O)c2cccc(C(F)F)c2)[nH]c2cc(N3CCOCC3=O)ccc21` [Compound 92, (E)-3-(difluoromethyl)-N-(1-(3-(methylthio)propyl)-5-(3-oxomorpholino)-1H-benzo[d]imidazol-2(3H)-ylidene)benzamide]: the IC50 in assay [1] was 100 to 1000 nM; in assay [2], not above 100 nM.

Consider `CS(=O)(=O)CCn1/c(=N/C(=O)c2cccc(C(F)F)c2)[nH]c2cc(N3CCOCC3=O)ccc21` [Compound 93, (E)-3-(difluoromethyl)-N-(1-(2-(methylsulfonyl)ethyl)-5-(3-oxomorpholino)-1H-benzo[d]imidazol-2(3H)-ylidene)benzamide], for which the IC50 in assay [1] and in assay [2] was not above 100 nM in each case.

As for `C[S+]([O-])CCn1/c(=N/C(=O)c2cccc(C(F)F)c2)[nH]c2cc(N3CCOCC3=O)ccc21` (stereo not drawn) [Compound 94, (E)-3-(difluoromethyl)-N-(1-(2-(methylsulfinyl)ethyl)-5-(3-oxomorpholino)-1H-benzo[d]imidazol-2(3H)-ylidene)benzamide], the IC50 was 100 to 1000 nM in assay [1] and not above 100 nM in assay [2].

As to `CNS(=O)(=O)c1cccc(C(=O)/N=c2\[nH]c3cc(N4CCOCC4=O)ccc3n2CCCO)c1` [Compound 97, (E)-N-(1-(3-hydroxypropyl)-5-(3-oxomorpholino)-1H-benzo[d]imidazol-2(3H)-ylidene)-3-(N-methylsulfamoyl)benzamide], the IC50 in assay [1] and in assay [2] was not above 100 nM in each case.

For `NS(=O)(=O)c1cccc(C(=O)/N=c2\[nH]c3cc(N4CCOCC4=O)ccc3n2CCCO)c1` [Compound 100, (E)-N-(1-(3-hydroxypropyl)-5-(3-oxomorpholino)-1H-benzo[d]imidazol-2(3H)-ylidene)-3-sulfamoylbenzamide], the IC50 in assay [1] and in assay [2] was not above 100 nM in each case.

As for `CN(C)S(=O)(=O)c1cccc(C(=O)/N=c2\[nH]c3cc(N4CCOCC4=O)ccc3n2CCCO)c1` [Compound 101, (E)-3-(N,N-dimethylsulfamoyl)-N-(1-(3-hydroxypropyl)-5-(3-oxomorpholino)-1H-benzo[d]imidazol-2(3H)-ylidene)benzamide], the IC50 in assay [1] is 100 to 1000 nM; in assay [2] it was not above 100 nM.

For `O=C(/N=c1\[nH]c2cc(N3CCOCC3=O)ccc2n1CCCO)c1ccc2nc[nH]c2c1` [Compound 102, (E)-N-(1-(3-hydroxypropyl)-5-(3-oxomorpholino)-1H-benzo[d]imidazol-2(3H)-ylidene)-1H-benzo[d]imidazole-6-carboxamide], the IC50 in assay [1] and in assay [2] was more than 1000 nM each time.

With `CC(F)(F)c1cccc(C(=O)/N=c2\[nH]c3cc(N4CCOCC4=O)ccc3n2CCCO)c1` [Compound 103, (E)-3-(1,1-difluoroethyl)-N-(1-(3-hydroxypropyl)-5-(3-oxomorpholino)-1H-benzo[d]imidazol-2(3H)-ylidene)benzamide], the figures for the IC50 in assay [1] and in assay [2] were 100 to 1000 nM and not above 100 nM, respectively.

As for `O=C(/N=c1\[nH]c2cc(N3CCOCC3=O)ccc2n1CCCO)c1cccc(CF)c1` [Compound 104, (E)-3-(fluoromethyl)-N-(1-(3-hydroxypropyl)-5-(3-oxomorpholino)-1H-benzo[d]imidazol-2(3H)-ylidene)benzamide], the IC50 is 100 to 1000 nM in assay [1] and not above 100 nM in assay [2].

As to `Cc1cccc(C(=O)/N=c2\[nH]c3cc(N4CCOCC4=O)ccc3n2CCCO)c1` [Compound 105, (E)-N-(1-(3-hydroxypropyl)-5-(3-oxomorpholino)-1H-benzo[d]imidazol-2(3H)-ylidene)-3-methylbenzamide], the IC50 was 100 to 1000 nM in assay [1] and not above 100 nM in assay [2].

On to `O=C(/N=c1\[nH]c2cc(N3CCOCC3=O)ccc2n1CCCO)c1cccc(Cl)c1` [Compound 106, (E)-3-chloro-N-(1-(3-hydroxypropyl)-5-(3-oxomorpholino)-1H-benzo[d]imidazol-2(3H)-ylidene)benzamide], for which the IC50 was 100 to 1000 nM in assay [1] and not above 100 nM in assay [2].

For `O=C(/N=c1\[nH]c2cc(N3CCOCC3=O)ccc2n1CCCO)c1cccc(-c2cc[nH]c(=O)c2)c1` [Compound 107, (E)-N-(1-(3-hydroxypropyl)-5-(3-oxomorpholino)-1H-benzo[d]imidazol-2(3H)-ylidene)-3-(2-oxo-1,2-dihydropyridin-4-yl)benzamide], the IC50 in assay [1] and in assay [2] was not above 100 nM each time.

For the compound `O=C(/N=c1\[nH]c2cc(N3CCNCC3=O)ccc2n1CCCO)c1cccc(C(F)(F)F)c1` [Compound 108, (E)-N-(1-(3-hydroxypropyl)-5-(2-oxopiperazin-1-yl)-1H-benzo[d]imidazol-2(3H)-ylidene)-3-(trifluoromethyl)benzamide], the IC50 in assay [1] and in assay [2] was not above 100 nM throughout.

`O=C(/N=c1\[nH]c2cc(N3CCNCC3=O)ccc2n1CCCO)c1cccc(C(F)F)c1` [Compound 109, (E)-3-(difluoromethyl)-N-(1-(3-hydroxypropyl)-5-(2-oxopiperazin-1-yl)-1H-benzo[d]imidazol-2(3H)-ylidene)benzamide]: the IC50 in assay [1] is 100 to 1000 nM; in assay [2], not above 100 nM.

For the origin of these results see patent US10059701B2 (Merck Patent GmbH, priority 2015, dated 2018).
